# Source: ChEMBL document CHEMBL1159171, “Symmetry-based HIV protease inhibitors containing a hydroxy bis-urea isostere” (Bioorg Med Chem Lett, 1994)
# Target: Human immunodeficiency virus type 1 protease (Human immunodeficiency virus 1) (UniProt Q72874)
# Test: In vitro inhibitory activity against HIV-1 protease at a concentration of 10 uM
row,inhibition,SMILES
1,67%,CC(C)(C)NC(=O)N(Cc1cccc(O)c1O)CC(O)CN(Cc1cccc(O)c1O)C(=O)NC(C)(C)C
2,38%,CCCNC(=O)N(Cc1ccccc1)CC(O)CN(Cc1ccccc1)C(=O)NCCC
3,17.5%,CC(C)(C)N(Cc1ccccc1)C(=O)NCC(O)CNC(=O)N(Cc1ccccc1)C(C)(C)C
4,8%,CC(C)(C)NC(=O)NCC(O)CNC(=O)NC(C)(C)C
5,28%,CC(C)(C)OC(=O)NC(=O)N(Cc1ccccc1)CC(O)CN(Cc1ccccc1)C(=O)NC(=O)OC(C)(C)C
6,16%,O=C(Nc1ccccc1)N(Cc1ccccc1)CC(O)CN(Cc1ccccc1)C(=O)Nc1ccccc1
7,11%,CC(C)(C)NC(=O)N(Cc1ccccc1O)CC(O)CN(Cc1ccccc1O)C(=O)NC(C)(C)C
8,67%,CC(C)(C)NC(=O)N(Cc1cccc(O)c1)CC(O)CN(Cc1cccc(O)c1)C(=O)NC(C)(C)C
9,25%,CC(C)CN(CC(O)CN(CC(C)C)C(=O)NC(C)(C)C)C(=O)NC(C)(C)C
10,78%,CC(C)(C)NC(=O)N(Cc1ccccc1)C[C@H](O)[C@@H](O)CN(Cc1ccccc1)C(=O)NC(C)(C)C
11,50%,CC(C)(C)NC(=O)N(Cc1ccccc1)CC(O)CN(Cc1ccccc1)C(=O)NC(C)(C)C
12,19%,O=C(NCc1ccccc1)N(Cc1ccccc1)CC(O)CN(Cc1ccccc1)C(=O)NCc1ccccc1
13,36%,CON[C@H](C(=O)NC(=O)N(Cc1ccccc1)CC(O)CN(Cc1ccccc1)C(=O)NC(=O)[C@@H](NOC)C(C)C)C(C)C
14,16%,"CON[C@@H](C(=O)NC(=O)N(Cc1ccccc1)CC(O)CN(Cc1ccccc1)C(=O)NC(=O)[C@H](NOC)C(C)C)C(C)C (single isomer, unassigned)"

row,SMILES,inhibition
1,CC(C)[C@H](NC(=O)OCc1ccccc1)C(=O)N[C@@H](Cc1ccccc1)C(O)[C@H](Cc1ccccc1)NC(=O)[C@@H](NC(=O)OCc1ccccc1)C(C)C,3%
